These results are taken from paper PMC7762591, “AmOctα2R: Functional Characterization of a Honeybee Octopamine Receptor Inhibiting Adenylyl Cyclase Activity” (International Journal of Molecular Sciences, 2020).

The structures appear in SMILES notation. “Also recorded” adds a separate entry of the source. Like-named read-outs stand apart in the source and are kept apart here. Where only a bound is given, the exact number is not on record here.

Assay [1] addresses T1, AmOctα2R-HA (Apis mellifera, UniProt A0A7M7FZR9). Description: Antagonist concentration-response on tyramine-activated AmOctα2R-HA in flpTM cells. The class given is cell-based. On the procedure: The ability of various potential antagonists for impairing AmOctα2R-HA activity was assessed in a similar way. […] Ligand concentrations that led to the half-maximal inhibition of AmOctα2R-HA (IC50) were determined from the concentration–response curves and are summarized in Table 2.
(§1) For AmOctα2R-HA expression and pharmacological analysis, we used a human embryonic kidney (HEK293; flpIn cells; Invitrogen/ThermoFisher Scientific; #750-07)-based cell line that was transfected with a gene encoding a variant of the A2-subunit of the olfactory CNG ion channel (flpTM cells), provided by Sibion biosciences, Jülich, Germany. These flpTM cells were transfected with 3 µg, 8 µg, or 12 µg of the pcAmOctα2R-HA construct by a modified calcium phosphate method following a previously established protocol. Transfected cells were selected in the presence of the antibiotics G418 (1 mg/mL) and hygromycin (100 µg/mL). Expression of AmOctα2R-HA was monitored by Western blotting and immunocytochemistry using anti-HA antibodies (Roche/Sigma-Aldrich/Merck).
(§2) A stably transfected cell line was used to examine AmOctα2R-HA receptor activity by Ca^2+ imaging. Control measurements were performed in the parental (flpTM) cell line. Changes in [cAMP]i were registered indirectly via co-expressed CNG channels that were opened by cAMP and cause an influx of extracellular Ca^2+ [30, 32, 48]. Changes in [Ca^2+]i were monitored with the Ca^2+-sensitive fluorescent dye Fluo-4. Cells were grown in 96-well dishes to a density of approximately 2 × 10^4 cells per well and were loaded at room temperature with Fluo-4 AM as described previously. After 90 min, the loading solution was substituted with a dye-free extracellular solution (ECS; 120 mM NaCl, 5 mM KCl, 2 mM MgCl2, 2 mM CaCl2, 10 mM HEPES, and 10 mM glucose, pH 7.4 (NaOH)) containing 100 µM IBMX. The plate was transferred into a fluorescence reader (FLUOstar Omega, BMG Labtech, Ortenberg, Germany) to monitor Fluo-4 fluorescence. The excitation wavelength was 485 nm. Fluorescence emission was detected at 520 nm. Concentration series of various biogenic amines and synthetic receptor ligands were added, once Fluo-4 fluorescence intensity reached a stable value in each well. The changes in Fluo-4 fluorescence were recorded automatically. Concentration–response curves were established from at least three independent experiments with quadruplicate measurements.

Assay [2] has as its target T1, AmOctα2R-HA. Description: Antagonist concentration-response on octopamine-activated AmOctα2R-HA in flpTM cells. Type of assay: cell-based. On the procedure:
as §1, §2
Table S3. Mean values for half-maximal inhibition (IC50 [M] and log IC50 ± SD) for substances with antagonistic activity on octopamine-activated AmOctα2R. For each substance at least […] independent experiments with quadruplicate measurements were performed. Values were obtained from non-linear fitting of the data from concentration-response curves (GraphPad Prism 5.04).
Substance IC50 [M] log IC50 […]
Biol Direct. 2008, 3, 20. […]
Int.

Assay [3] concerns the target T1, AmOctα2R-HA. Description: Agonist effects on NKH 477-stimulated cAMP (Fluo-4 Ca2+ fluorescence via co-expressed CNG channel) in AmOctα2R-HA-expressing flpTM cells. The following applies: for effect on NKH 477-stimulated cAMP production (Ca2+-dependent fluorescence signal): biogenic amines 10^−6 M each. Type of assay: cell-based. On the procedure: as §1, §2
A general note: Cyclic AMP is a second messenger, typically raised through Gs and lowered through Gi signalling.

The test system of assay [4] is nontransfected flpTM cells. Description: Control measurements of Fluo-4 fluorescence in nontransfected (parental) flpTM cells. The class given is cell-based, human. On the procedure:
as §1
A stably transfected cell line was used to examine AmOctα2R-HA receptor activity by Ca^2+ imaging. […] Changes in [Ca^2+]i were monitored with the Ca^2+-sensitive fluorescent dye Fluo-4. […] The plate was transferred into a fluorescence reader (FLUOstar Omega, BMG Labtech, Ortenberg, Germany) to monitor Fluo-4 fluorescence. […] Fluorescence emission was detected at 520 nm. Concentration series of various biogenic amines and synthetic receptor ligands were added, once Fluo-4 fluorescence intensity reached a stable value in each well. The changes in Fluo-4 fluorescence were recorded automatically. […]

The test system of assay [5] is DmOctα2R. Set-up: method as in PMID 28942992. The following applies: dose-dependent activation of DmOctα2R; cited from earlier work.
Setting [6] is: tyramine-activated (10 µM tyramine).
[7] abbreviates: tyramine-activated (10 µM tyramine), 10 µM NKH 477, 100 µM IBMX, read-out: IC50 [M], mean value for half-maximal inhibition.
Where [8] appears, read: block of the action of octopamine, second value of the pair, read-out: IC50.
[9] abbreviates: log IC50 ± SD, log of IC50 in M, octopamine-activated (3 × 10^−7 M octopamine).
The mark [10] stands for this setting: log of IC50 in M, tyramine-activated (10 µM tyramine), read-out: logIC50 ± SD (converted).
[11] abbreviates: log of IC50 in M, octopamine-activated (3 × 10^−7 M octopamine), read-out: log IC50 ± SD (converted).
Where [12] appears, read: log of EC50 in M, mean of all experiments, octopamine n = 7, tyramine n = 11, read-out: logEC50 ± SD, mean value (converted).
The mark [13] stands for this setting: log of EC50 in M, single concentration-response curve (Figures 4 and 6), read-out: logEC50 ± SD, typical experiment (converted).
[14] abbreviates: mean of all experiments, octopamine n = 7, tyramine n = 11, 10 µM NKH 477, 100 µM IBMX, read-out: EC50 [M], mean value for half-maximal stimulation.
The mark [15] stands for this setting: single concentration-response curve (Figures 4 and 6), octopamine fitted from 10^−9 M to 3 × 10^−6 M, read-out: EC50 (half-maximal reduction of cAMP / activation), typical experiment.

T1 sequence (A0A7M7FZR9 entry or part of it): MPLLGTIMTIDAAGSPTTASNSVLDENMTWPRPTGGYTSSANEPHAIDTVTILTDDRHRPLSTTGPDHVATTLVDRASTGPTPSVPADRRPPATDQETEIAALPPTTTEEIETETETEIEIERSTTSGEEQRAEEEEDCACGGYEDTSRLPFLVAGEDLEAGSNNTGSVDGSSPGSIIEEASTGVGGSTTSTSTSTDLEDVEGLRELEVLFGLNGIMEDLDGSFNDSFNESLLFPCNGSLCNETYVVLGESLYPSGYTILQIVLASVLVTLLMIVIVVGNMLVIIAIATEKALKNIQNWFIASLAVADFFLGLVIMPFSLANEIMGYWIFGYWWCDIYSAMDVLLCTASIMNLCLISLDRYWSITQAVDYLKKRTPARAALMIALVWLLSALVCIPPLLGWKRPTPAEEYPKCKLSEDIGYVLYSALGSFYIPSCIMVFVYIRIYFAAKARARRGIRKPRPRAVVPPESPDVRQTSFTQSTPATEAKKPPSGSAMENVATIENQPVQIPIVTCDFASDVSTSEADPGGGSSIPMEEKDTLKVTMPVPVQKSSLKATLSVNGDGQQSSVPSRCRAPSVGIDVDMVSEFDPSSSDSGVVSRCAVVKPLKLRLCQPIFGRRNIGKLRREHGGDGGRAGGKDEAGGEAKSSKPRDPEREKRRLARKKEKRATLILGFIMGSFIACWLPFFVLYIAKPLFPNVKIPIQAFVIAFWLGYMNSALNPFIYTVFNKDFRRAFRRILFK

Take `NCCc1c[nH]c2ccc(C(N)=O)cc12` [5-CT, 5-carboxamidotryptamine]: the “logIC50 ± SD” value in assay [1] (log of IC50 in M, tyramine-activated (10 µM tyramine)) was −8.48 ± 0.20. Further, the “Maximal Inhibition [%]” value in assay [1] (setting [6]) is given as 10.8%. Besides, the IC50 came out at 4.16e-09 M in assay [1] (setting [7]) and 0.27 nM in assay [2] (setting [8]). For the same compound, the “log IC50 ± SD” value in assay [2] (log of IC50 in M, octopamine-activated (3 × 10^−7 M octopamine)) is on record as -9.57 ± 0.21.

Take `COc1ccc2[nH]cc(CCN)c2c1` [5-MT, 5-methoxytryptamine]: the IC50 in assay [1] (IC50, block of the action of tyramine, first value of the printed pair) was 2.06e-08 M; in assay [1] (logIC50 ± SD, log of IC50 in M, tyramine-activated (10 µM tyramine)) it was 1.91e-08 M; in assay [2] (IC50, block of the action of octopamine, second value of the pair), 836 nM; in assay [2] (setting [9]), 832 nM. For the same compound, the “Maximal Inhibition [%]” value in assay [1] (setting [6]) stood at 20.3%.

On to `CCCN(CCC)C1CCc2cccc(O)c2C1` (stereo not drawn) [8-OH-DPAT, 8-Hydroxy-2-(dipropylamino)tetralin], for which the IC50 in assay [1] was 7.08e-07 M; in assay [2] (setting [9]) it was 166 nM. The “Maximal Inhibition [%]” value in assay [1] (setting [6]) is 7.21%.

Regarding `Cc1nn(C)c(C)c1-c1cccc2c1CC[C@H](N(C)C)C2` [AS-19], the “IC50 [M], mean value for half-maximal inhibition” value in assay [1] (tyramine-activated (10 µM tyramine), 10 µM NKH 477, 100 µM IBMX) is reported as “did not show any effect; also recorded: no effect”.

Consider `NCCc1ccc(O)c(O)c1` [dopamine], for which the “effect on NKH 477-stimulated cAMP production (Ca2+-dependent fluorescence signal)” value (shortened to “effect”) in assay [3] is reported as “no effect”.

Regarding `NC1=NCC2c3ccccc3Cc3ccccc3N12` (stereo not drawn) [epinastine], the figures for the IC50 in assay [1] (setting [10]) and in assay [2] (setting [11]) were 1.78e-08 M and 16.2 nM, respectively. Also, in assay [1] (setting [6]), the “Maximal Inhibition [%]” value was 17.31%.

Turning to `O=C(c1ccc(F)cc1)C1CCN(CCn2c(=O)[nH]c3ccccc3c2=O)CC1` [ketanserin], the IC50 in assay [1] (setting [10]) was 5.13e-07 M; in assay [2] (setting [11]), 324 nM. Also, in assay [1] (setting [6]), the “Maximal Inhibition [%]” value amounted to 17.11%.

Take `NCC(O)c1ccc(O)cc1` (stereo not drawn) [octopamine]: the “octopamine concentration at which an increase in the fluorescence signal was observed” value in assay [3] (AmOctα2R-HA-expressing flpTM cells, U-shaped curve, 10 µM NKH 477, 100 µM IBMX) is at least 3 µM. Besides, the Emax at 1 µM in assay [3] (at 10^−6 M octopamine, relative to 10 µM NKH 477 (=100%), read-out: maximal reduction of cAMP synthesis) is about 25%. The “effect” value in assay [3] is “decrease in the Ca^2+-dependent fluorescence signal”. The EC50 is 3.72e-08 M in assay [3] (setting [12]), 1.17e-07 M in assay [3] (setting [13]), 5.87e-08 M in assay [3] (setting [14]) and 1.17e-07 M in assay [3] (setting [15]). The “specificity for octopamine over tyramine (difference in EC50)” value in assay [3] (ratio of EC50 values) is on record as ~ 30 fold. Moreover, in assay [4] (in the presence of NKH 477), the “octopamine concentration leading to an increase in Fluo-4 fluorescence” value is at least 300 nM.

On to `Cc1ccc(N(CC2=NCCN2)c2cccc(O)c2)cc1` [phentolamine], for which the IC50 is 5.01e-09 M in assay [1] (setting [10]), 5.6e-09 M in assay [1] (setting [7]), 8.21 nM in assay [2] (setting [8]) and 8.13 nM in assay [2] (setting [11]). In assay [1] (setting [6]), the “Maximal Inhibition [%]” value is 16.1%.

For the compound `NCCc1c[nH]c2ccc(O)cc12` [serotonin, 5-hydroxytryptamine], in assay [5], the EC50 is 1040 nM. For the same compound, in assay [3], the “activation of AmOctα2R” value is “failed to activate” and the “effect” value is recorded as “no effect”.

Turning to `NCCc1ccc(O)cc1` [tyramine], the “effect” value in assay [3] is listed as “decrease in the Ca^2+-dependent fluorescence signal”. In addition, the EC50 was 1.66e-06 M in assay [3] (setting [12]), 1.63e-06 M in assay [3] (setting [13]), 1.85e-06 M in assay [3] (setting [14]) and 1.63e-06 M in assay [3] (setting [15]). For the same compound, in assay [3] (saturated at tyramine concentration of ≥3 × 10^−5 M, relative to 10 µM NKH 477 (=100%), read-out: reduction of cAMP signal at saturation), the Emax was about 17%. In assay [4], the “change in the fluorescence signal upon application” value was “no change in the fluorescence signal”.

With `COC(=O)[C@@H]1[C@H]2C[C@H]3c4[nH]c5ccccc5c4CCN3C[C@@H]2CC[C@@H]1O` [yohimbine], the IC50 in assay [1] is 7.59e-08 M; in assay [2] (setting [9]), 363 nM. The “Maximal Inhibition [%]” value in assay [1] (setting [6]) turned out to be 14.3%.
